The text below walks through data of US8829029B2, “Dual modulators of 5HT2A and D3 receptors” (Hoffmann-La Roche Inc., priority 2008, dated 2014).

Structures are written as SMILES.

In test [1] the target is human D3 dopamine receptor (Homo sapiens (Human), UniProt P35462). Put plainly: Radioligand binding ([3H]-spiperone) to cloned human D3 receptor expressed in HEK-293 EBNA cells. To be noted: membranes of transfected HEK-293 EBNA cells, 0.5 nM [3H]-spiperone, 1 h at RT. A digest of the protocol:
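Membranes from HEK-293 EBNA cells transiently transfected with human D3 receptor, incubated 1 h at RT with ~0.5 nM [3H]-spiperone and ten compound concentrations (10 μM-0.1 nM); nonspecific binding with 10 μM spiperone. Filtered, scintillation counted; IC50 from four-parameter fit, Ki via Cheng-Prusoff using saturation Kd.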

The target of test [2] is human 5-HT2A serotonin receptor (Homo sapiens (Human), UniProt P28223). The experiment in a line: Radioligand binding ([3H]-ketanserin) to cloned human 5-HT2A receptor expressed in HEK-293 EBNA cells. To be noted: membranes of transfected HEK-293 EBNA cells, 1.1 nM [3H]-ketanserin, 1 h at RT. The method in brief: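 Membranes from transiently transfected HEK-293 EBNA cells incubated 1 h at RT with 1.1 nM [3H]-ketanserin (5-HT2A, 15 μg protein/well, Tris/MgCl2/EGTA pH 7.4) or 0.5 nM [3H]-spiperone (D3, 7.5 μg/well, Tris/NaCl/MgCl2/KCl/CaCl2 pH 7.4) plus test compound at 10 μM-0.1 nM. Nonspecific binding with 10 μM spiperone; filtration, Ki via Cheng-Prusoff.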

human D3 dopamine receptor, sequence (P35462 whole entry): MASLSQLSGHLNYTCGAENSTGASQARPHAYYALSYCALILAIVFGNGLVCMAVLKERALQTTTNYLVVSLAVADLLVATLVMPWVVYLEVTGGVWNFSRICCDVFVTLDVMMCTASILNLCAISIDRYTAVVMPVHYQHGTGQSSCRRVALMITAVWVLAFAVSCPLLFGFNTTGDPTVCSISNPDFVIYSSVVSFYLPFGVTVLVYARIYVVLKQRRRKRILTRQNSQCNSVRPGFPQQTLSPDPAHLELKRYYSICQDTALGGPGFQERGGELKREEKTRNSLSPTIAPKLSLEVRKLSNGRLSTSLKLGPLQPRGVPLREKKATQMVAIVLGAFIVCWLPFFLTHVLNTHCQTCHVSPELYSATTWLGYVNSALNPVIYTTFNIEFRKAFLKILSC

As a reminder, the Ki is a measure of affinity in units of concentration, obtained from inhibition or displacement. In the case of `COc1ccc(S(=O)(=O)N[C@H]2CC[C@H](CCN3CCC(c4noc5cc(F)ccc45)CC3)CC2)cc1` [Example 49, N-trans(4-{2-[4-(6-Fluoro-benzo[d]isoxazol-3-yl)-piperidin-1-yl]-ethyl}-cyclohexyl)-4-methoxy-benzenesulfonamide], the Ki in test [1] stood at 3.72 nM; in test [2], 4.39 nM.

As for `N#CCC(=O)N[C@H]1CC[C@H](CCN2CCC(c3noc4cc(Cl)ccc34)CC2)CC1` [Example 51, N-trans-(4-{2-[4-(6-Chloro-benzo[d]isoxazol-3-yl)-piperidin-1-yl]-ethyl}-cyclohexyl)-2-cyano-acetamide], the Ki in test [1] is 8.19 nM; in test [2], 23.7 nM.

On to `N#CCCC(=O)N[C@H]1CC[C@H](CCN2CCC(c3noc4cc(Cl)ccc34)CC2)CC1` [Example 52, N-trans-(4-{2-[4-(6-Chloro-benzo[d]isoxazol-3-yl)-piperidin-1-yl]-ethyl}-cyclohexyl)-3-cyano-propionamide], for which the inhibition constant (Ki) is 8.77 nM in test [1] and 15.6 nM in test [2].

`O=C(C[C@H]1CCCO1)N[C@H]1CC[C@H](CCN2CCC(c3noc4cc(Cl)ccc34)CC2)CC1` [Example 53, N-trans-(4-{2-[4-(6-Chloro-benzo[d]isoxazol-3-yl)-piperidin-1-yl]-ethyl}-cyclohexyl)-2-(R)-tetrahydro-furan-2-yl-acetamide]: the results for the Ki in test [1] and in test [2] were 14.4 nM and 6.19 nM, respectively.

As for `O=C(CC1CC1)N[C@H]1CC[C@H](CCN2CCC(c3noc4cc(Cl)ccc34)CC2)CC1` [Example 54, N-trans-(4-{2-[4-(6-Chloro-benzo[d]isoxazol-3-yl)-piperidin-1-yl]-ethyl}-cyclohexyl)-2-cyclopropyl-acetamide], the results for the Ki in test [1] and in test [2] were 3.21 nM and 13.1 nM, respectively.

Consider `O=C(CO)N[C@H]1CC[C@H](CCN2CCC(c3noc4cc(Cl)ccc34)CC2)CC1` [Example 55, N-trans-(4-{2-[4-(6-Chloro-benzo[d]isoxazol-3-yl)-piperidin-1-yl]-ethyl}-cyclohexyl)-2-hydroxy-acetamide], for which the figures for the inhibition constant Ki in test [1] and in test [2] were 16.8 nM and 15 nM, respectively.

For the molecule `CS(=O)(=O)CC(=O)N[C@H]1CC[C@H](CCN2CCC(c3noc4cc(Cl)ccc34)CC2)CC1` [Example 56, N-trans-(4-{2-[4-(6-Chloro-benzo[d]isoxazol-3-yl)-piperidin-1-yl]-ethyl}-cyclohexyl)-2-methanesulfonyl-acetamide], the Ki in test [1] was 14.8 nM; in test [2], 15.2 nM.

For the molecule `O=C(CC1OCCCO1)N[C@H]1CC[C@H](CCN2CCC(c3noc4cc(Cl)ccc34)CC2)CC1` [Example 57, N-trans-(4-{2-[4-(6-Chloro-benzo[d]isoxazol-3-yl)-piperidin-1-yl]-ethyl}-cyclohexyl)-2-[1,3]dioxan-2-yl-acetamide], the figures for the Ki in test [1] and in test [2] were 6.13 nM and 17.6 nM, respectively.

With `CO[C@H]1CC[C@H](CC(=O)N[C@H]2CC[C@H](CCN3CCC(c4noc5ccc(Cl)cc45)CC3)CC2)CC1` [Example 58, N-trans-(4-{2-[4-(5-Chloro-benzo[d]isoxazol-3-yl)-piperidin-1-yl]-ethyl}-cyclohexyl)-2-(4-methoxy-cyclohexyl)-acetamide], the Ki in test [1] was 8.38 nM; in test [2], 24.7 nM.

With `CS(=O)(=O)N[C@H]1CC[C@H](CCN2CCC(c3noc4ccc(F)cc34)CC2)CC1` [Example 59, N-trans-(4-{2-[4-(5-Fluoro-benzo[d]isoxazol-3-yl)-piperidin-1-yl]-ethyl}-cyclohexyl)-methanesulfonamide], the results for the Ki in test [1] and in test [2] were 7.98 nM and 27.5 nM, respectively.

Regarding `COCCC(=O)N[C@H]1CC[C@H](CCN2CCC(c3noc4cc(Cl)c(F)cc34)CC2)CC1` [Example 60, N-trans-(4-{2-[4-(6-Chloro-5-fluoro-benzo[d]isoxazol-3-yl)-piperidin-1-yl]-ethyl}-cyclohexyl)-3-methoxy-propionamide], the inhibitory constant (Ki) came out at 13.5 nM in test [1] and 44 nM in test [2].

Consider `O=C(CC1CCCO1)N[C@H]1CC[C@H](CCN2CCC(c3noc4cc(Cl)c(F)cc34)CC2)CC1` (stereo partly drawn) [Example 61, N-trans-(4-{2-[4-(6-Chloro-5-fluoro-benzo[d]isoxazol-3-yl)-piperidin-1-yl]-ethyl}-cyclohexyl)-2-(tetrahydro-furan-2-yl)-acetamide], for which the figures for the Ki in test [1] and in test [2] were 17.7 nM and 31 nM, respectively.

For `COCC(=O)N[C@H]1CC[C@H](CCN2CCC(c3noc4cc(F)c(F)cc34)CC2)CC1` [Example 62, N-trans-(4-{2-[4-(5,6-Difluoro-benzo[d]isoxazol-3-yl)-piperidin-1-yl]-ethyl}-cyclohexyl)-2-methoxy-acetamide], the Ki came to 32.7 nM in test [1] and 10.5 nM in test [2].

For the molecule `CO[C@@H]1CC[C@@H](CC(=O)N[C@H]2CC[C@H](CCN3CCC(c4noc5cc(F)c(F)cc45)CC3)CC2)C1` [Example 63, N-trans-(4-{2-[4-(5,6-Difluoro-benzo[d]isoxazol-3-yl)-piperidin-1-yl]-ethyl}-cyclohexyl)-2-((1R,3R)-3-methoxy-cyclopentyl)-acetamide], the inhibitory constant (Ki) turned out to be 20 nM in test [1] and 13.2 nM in test [2].

As to `CO[C@H]1CC[C@H](CC(=O)N[C@H]2CC[C@H](CCN3CCC(c4noc5cc(F)c(F)cc45)CC3)CC2)CC1` [Example 64, N-trans-(4-{2-[4-(5,6-Difluoro-benzo[d]isoxazol-3-yl)-piperidin-1-yl]-ethyl}-cyclohexyl)-2-(4-methoxy-cyclohexyl)-acetamide], the results for the Ki in test [1] and in test [2] were 17.3 nM and 7.67 nM, respectively.

`COCCC(=O)N[C@H]1CC[C@H](CCN2CCC(c3noc4cc(F)c(F)cc34)CC2)CC1` [Example 65, N-trans-(4-{2-[4-(5,6-Difluoro-benzo[d]isoxazol-3-yl)-piperidin-1-yl]-ethyl}-cyclohexyl)-3-methoxy-propionamide]: the values for the Ki in test [1] and in test [2] were 11.4 nM and 12.9 nM, respectively.

For the molecule `CC(=O)N[C@H]1CC[C@H](CCN2CCC(c3noc4cc(F)c(F)cc34)CC2)CC1` [Example 66, N-trans-(4-{2-[4-(5,6-Difluoro-benzo[d]isoxazol-3-yl)-piperidin-1-yl]-ethyl}-cyclohexyl)-acetamide], the Ki in test [1] worked out at 11.4 nM; in test [2], 17.7 nM.

Regarding `O=C(CO)N[C@H]1CC[C@H](CCN2CCC(c3noc4cc(F)c(F)cc34)CC2)CC1` [Example 67, N-trans-(4-{2-[4-(5,6-Difluoro-benzo[d]isoxazol-3-yl)-piperidin-1-yl]-ethyl}-cyclohexyl)-2-hydroxy-acetamide], the Ki in test [1] came out at 19.9 nM; in test [2], 11.8 nM.

Consider `O=C(CCO)N[C@H]1CC[C@H](CCN2CCC(c3noc4cc(F)c(F)cc34)CC2)CC1` [Example 68, N-trans-(4-{2-[4-(5,6-Difluoro-benzo[d]isoxazol-3-yl)-piperidin-1-yl]-ethyl}-cyclohexyl)-3-hydroxy-propionamide], for which the Ki in test [1] was determined as 11.7 nM; in test [2], 24.8 nM.

Regarding `O=C(C[C@H]1CC[C@H](O)CC1)N[C@H]1CC[C@H](CCN2CCC(c3noc4cc(F)c(F)cc34)CC2)CC1` [Example 69, N-trans-(4-{2-[4-(5,6-Difluoro-benzo[d]isoxazol-3-yl)-piperidin-1-yl]-ethyl}-cyclohexyl)-2-(4-hydroxy-cyclohexyl)-acetamide], the Ki in test [1] turned out to be 20.9 nM; in test [2] it was 7.85 nM.
